Legend:
[1] = tested on: Homozygous, diabetic mice; experiment: Wound healing in homozygous diabetic mice, systemic or topical administration (Example 2); format: in vivo; conditions: topical administration, 4% w/v aqueous solution, FIG. 7
Procedure: Homozygous, diabetic mice described above, and wounded in the manner described above in Example 1, were treated by topical administration of iroxanadine or arimoclomol. A 4% w/v aqueous solution of arimoclomol were separately administered topically to the wounded position. […] dosage of iroxanadine was at 10 mg/kg IP, b.i.d., a relatively low concentration.

[2] = tested on: BKS.Cg-m^+/+ Lepr^db/J homozygous mice; experiment: Wound healing in diabetic db/db mice, daily oral dosing (Example 1); format: in vivo
From the text: Seventy male BKS.Cg-m^+/+ Lepr^db/J homozygous mice were housed and handled for seven (7) days prior to commencement of the procedure for acclimation purposes. The mice weighed 26.1-41.2 g on Day 0, at the age of 8 weeks. As control, twenty male BKS.Cg-m^+/− Lepr^db/J heterozygous mice were handled similarly. These mice weighed 19.6-25.1 g on Day 0, at the age of 8 weeks. Mice were divided into Groups (1) to (9), each group consisting of 10 mice.
On Day 0, two full-thickness wounds were made on each mouse in Groups A-I (n=80). […]
Immediately following the generation of the skin wound, the original wound was traced by using a fine point maker to outline the perimeter of the wound onto transparency paper (the mouse was immobilized using isoflurane anesthesia for this procedure), and wound size was then traced every 3 days. […] Outlines were digitized, quantified and analyzed using computer imaging software as described below.
The mice began daily dosing as detailed in Table 1 on the day of wounding. The mice continued to receive daily treatment until wound closure as determined by the study director and the client. Blood glucose levels were measured by glucometer prior to the first scheduled dosing and weekly thereafter-using blood collected by tail nick. Body weights were measured weekly beginning prior to treatment. […]
Raw data was reviewed (read and understood) for accuracy. […]

[3] = mice, previously determined; cited from earlier work
[4] = rat, subchronic studies; cited from earlier work
[5] = Morbidity, mortality and body weights in the wound healing study (Example 1); format: in vivo, mice
Procedure: The mice began daily dosing as detailed in Table 1 on the day of wounding. The mice continued to receive daily treatment until wound closure as determined by the study director and the client. Blood glucose levels were measured by glucometer prior to the first scheduled dosing and weekly thereafter-using blood collected by tail nick. Body weights were measured weekly beginning prior to treatment. Clinical observations were conducted weekly.

Row | Compound | wound healing over time [1] | wound closure rate ([2]; rate analysed for Days 0-8 (with ethanol) and Days 9-12 (no ethanol), FIG. 5E) | odds of closure of both wounds (hazard ratio, proportional hazard model) ([2]; relative to homozygous diabetic control Group (3), iroxanadine 10-200 mg/kg Groups (4)-(8), arimoclomol 200 mg/kg Group 9, QD PO, FIG. 4) | acute oral LD50 [3] [mg/kg] | no observed adverse effect level (NOAEL) [4] [mg/kg] | tolerability of the highest dose relative to maximum tolerated dose (MTD) ([5]; 200 mg/kg QD PO, administered with EtOH) | unplanned mice deaths outside of the study protocol ([5]; highest dose 200 mg/kg QD PO, Groups (2) and (8), formulation contained EtOH Days 0-8) | effect on body weight ([5]; mice, daily until wound closure, FIG. 1A-B)
1 | [O-][n+]1cccc(/C(Cl)=N/OC[C@H](O)CN2CCCCC2)c1 [arimoclomol, N-[2-hydroxy-3-(1-piperidinyl)propoxy]-pyridine-1-oxide-3-carboximidoyl chloride] | clearly showed an accelerated healing of wounds | statistically relevant increase in the wound closure rate | appeared to be effective in increasing the odds of wound closure | – | – | – | – | –
2 | c1cncc(C2=NOCC(CN3CCCCC3)N2)c1 (centres unmarked) [iroxanadine, 5,6-dihydro-5(1-piperidinyl)-methyl-3-(3-pyridyl)-4H-1,2,4-oxadiazine] | – | – | – | 3800 | 400 | may be above the maximum tolerated dose (MTD) and approaching LD50 | Eight of the nine deaths | No significant effect on body weight was observed except in diabetic animals treated with the highest dose

— patent US20090227572A1, “TREATMENT OF DIABETIC WOUNDS AND PERIPHERAL NEUROPATHIES” (Cytrx Corporation, priority 2007, published 2009)
